Test results from PubChem BioAssay (NCI).
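Each compound was tested at five concentrations against cells in 96-well plates for 48 hours. Abbreviation: GI50, concentration required for 50% inhibition of growth. TGI denotes the concentration required for complete inhibition of growth.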

Key:
Assay in all cases: inhibition of tumour cell growth, NCI panel, 48 h
[1] = system: NCI/ADR-RES ovarian
[2] = system: U251 CNS
[3] = system: OVCAR-8 ovarian
[4] = system: UACC-257 melanoma
[5] = system: MCF7 breast
[6] = system: SW-620 colon
[7] = system: OVCAR-4 ovarian
[8] = system: CAKI-1 renal
[9] = system: SF-539 CNS
[10] = system: UO-31 renal
[11] = system: M14 melanoma
[12] = system: 786-0 renal
[13] = system: HCC-2998 colon
[14] = system: SF-268 CNS
[15] = system: K-562 leukemia
[16] = system: MALME-3M melanoma
[17] = system: A549 NSCLC
[18] = system: COLO 205 colon
[19] = system: HT29 colon
[20] = system: SNB-19 CNS
[21] = system: DU-145 prostate
[22] = system: T-47D breast
[23] = system: SNB-75 CNS
[24] = system: SN12C renal
[25] = system: HCT-116 colon
[26] = system: ACHN renal
[27] = system: HOP-92 NSCLC
[28] = system: MDA-MB-231 breast
[29] = system: SK-OV-3 ovarian
[30] = system: LOX IMVI melanoma
[31] = system: EKVX NSCLC
[32] = system: OVCAR-5 ovarian
[33] = system: SK-MEL-28 melanoma
[34] = system: PC-3 prostate
[35] = system: CCRF-CEM leukemia
[36] = system: RPMI-8226 leukemia
[37] = system: RXF 393 renal
[38] = system: HL-60(TB) leukemia
[39] = system: SK-MEL-2 melanoma
[40] = system: NCI-H226 lung
[41] = system: MOLT-4 leukemia
[42] = system: SR leukemia
[43] = system: HS 578T breast
[44] = system: A498 renal
[45] = system: NCI-H460 lung
[46] = system: SF-295 CNS
[47] = system: IGROV1 ovarian
[48] = system: HCT-15 colon
[49] = system: KM12 colon
[50] = system: NCI-H522 lung
[51] = system: UACC-62 melanoma
[52] = system: BT-549 breast
[53] = system: MDA-MB-435
[54] = system: OVCAR-3 ovarian
[55] = system: TK-10 renal
[56] = system: SK-MEL-5 melanoma
[57] = system: HOP-62 NSCLC

c1ccc2c(NCCCN3CCOCC3)c3oc4ccccc4c3nc2c1
GI50 [1]: 692 nM | TGI [1]: 10900 nM | GI50 [2]: 1490 nM | TGI [2]: 11000 nM | GI50 [3]: 1170 nM | TGI [3]: 11200 nM | GI50 [4]: 1940 nM | TGI [4]: 4080 nM | GI50 [5]: 1020 nM | TGI [5]: 5830 nM | GI50 [6]: 509 nM | TGI [6]: 10500 nM | GI50 [7]: 1240 nM | TGI [7]: 5140 nM | GI50 [8]: 1100 nM | TGI [8]: 11100 nM | GI50 [9]: 1500 nM | TGI [9]: 3460 nM | GI50 [10]: 1730 nM | TGI [10]: 11700 nM | GI50 [11]: 1660 nM | TGI [11]: 4110 nM | GI50 [12]: 1950 nM | TGI [12]: 14000 nM | GI50 [13]: 1100 nM | TGI [13]: 3720 nM | GI50 [14]: 1250 nM | TGI [14]: 15500 nM | GI50 [15]: 649 nM | TGI [15]: > 100000 nM | GI50 [16]: 1820 nM | TGI [16]: 3850 nM | GI50 [17]: 1580 nM | TGI [17]: 12600 nM | GI50 [18]: 949 nM | TGI [18]: 2770 nM | GI50 [19]: 566 nM | TGI [19]: 2330 nM | GI50 [20]: 1870 nM | TGI [20]: 13100 nM | GI50 [21]: 1550 nM | TGI [21]: 16200 nM | GI50 [22]: 2610 nM | TGI [22]: 9770 nM | GI50 [23]: 1310 nM | TGI [23]: 2600 nM | GI50 [24]: 1020 nM | TGI [24]: 11500 nM | GI50 [25]: 437 nM | TGI [25]: 11100 nM | GI50 [26]: 577 nM | TGI [26]: 20100 nM | GI50 [27]: 2100 nM | TGI [27]: 5820 nM | GI50 [28]: 1540 nM | TGI [28]: 7140 nM | GI50 [29]: 3140 nM | TGI [29]: 18600 nM | GI50 [30]: 568 nM | TGI [30]: 3230 nM | GI50 [31]: 2540 nM | TGI [31]: 13200 nM | GI50 [32]: 1570 nM | TGI [32]: 7280 nM | GI50 [33]: 1880 nM | TGI [33]: 3790 nM | GI50 [34]: 1890 nM | TGI [34]: 7590 nM | GI50 [35]: 1640 nM | TGI [35]: 15000 nM | GI50 [36]: 1720 nM | TGI [36]: 6280 nM | GI50 [37]: 1290 nM | TGI [37]: 3220 nM | GI50 [38]: 2340 nM | TGI [38]: 8590 nM | GI50 [39]: 1730 nM | TGI [39]: 3290 nM | GI50 [40]: 1930 nM | TGI [40]: 5300 nM | GI50 [41]: 476 nM | TGI [41]: 38100 nM | GI50 [42]: 599 nM | TGI [42]: 10100 nM | GI50 [43]: 2080 nM | TGI [43]: 6990 nM | GI50 [44]: 2010 nM | TGI [44]: 4410 nM | GI50 [45]: 459 nM | TGI [45]: 5960 nM | GI50 [46]: 1590 nM | TGI [46]: 10700 nM | GI50 [47]: 2260 nM | TGI [47]: 12000 nM | GI50 [48]: 719 nM | TGI [48]: 12200 nM | GI50 [49]: 1460 nM | TGI [49]: 15300 nM | GI50 [50]: 1280 nM | TGI [50]: 3150 nM | GI50 [51]: 2160 nM | TGI [51]: 5490 nM | GI50 [52]: 2030 nM | TGI [52]: 4750 nM | GI50 [53]: 1260 nM | TGI [53]: 2610 nM | GI50 [54]: 2410 nM | TGI [54]: 45400 nM | GI50 [55]: 2550 nM | TGI [55]: 9750 nM | GI50 [56]: 1980 nM | TGI [56]: 3990 nM | GI50 [57]: 1670 nM | TGI [57]: 8180 nM
